Reference: patent publication US20250250257A1, “NOVEL CRYSTALLINE FORMS” (Assembly Biosciences, Inc., priority 2021, published 2025)
Converted amounts (≈) assume the structure as drawn. “Also recorded” adds a separate entry of the source.

Tests used:
Format in all cases: physicochemical
[1] = Approximate solubility test of Compound I at room temperature / 50° C. in different solvents; settings: thermodynamic from solid
Description: The specific steps are as follows: Charge about 5 mg of Compound I into a clean glass vial, […] visible particles (add up to 1.5 mL of solvent), record the amount of solvent at last for the calculation of solubility.

[2] = Approximate solubility of Compound I, Type 1 at RT in twenty solvents (stepwise solvent addition); settings: for solubility: thermodynamic from solid, read-out: Approximate Solubility (mg/mL) at RT
Description: The solubility of Compound I, Type 1 (6036531-01-A) was estimated at RT in twenty different solvents. Approximately 2 mg solids were added into a 3-mL glass vial. Solvents in Table 39 were then added stepwise (50 μL per step) into the vials until the solids were dissolved or a total volume of 2 mL was reached.

[3] = DVS (water sorption, hygroscopicity, form change post-DVS); settings: for form change post-DVS (XRPD): after DVS (desorption and resorption)

Cn1cnc(C2CC3CC(O)(c4cc(OCC(C)(C)O)nn4C)CC3C2)c1C(=O)Nc1ccc(F)c(Cl)c1 (centres unmarked) [Compound I, N-(3-Chloro-4-fluorophenyl)-4-(5-hydroxy-5-(3-(2-hydroxy-2-methylpropoxy)-1-methyl-1H-pyrazol-5-yl)octahydropentalen-2-yl)-1-methyl-1H-imidazole-5-carboxamide]
solubility ([1]; organic solvent or mixture, ACN, 20-25° C., read-out: Solubility (mg/mL) 20-25° C.): < 3.3 mg/mL | solubility ([1]; organic solvent or mixture, ACN, 50° C., read-out: Solubility (mg/mL) 50° C.): < 3.3 mg/mL | solubility ([1]; organic solvent or mixture, Acetone, 20-25° C., read-out: Solubility (mg/mL) 20-25° C.): < 3.3 mg/mL | solubility ([1]; organic solvent or mixture, Acetone, 50° C., read-out: Solubility (mg/mL) 50° C.): 3.8 to 4 mg/mL (≈ 6.96 to 7.33 mM) | solubility ([1]; organic solvent or mixture, Acetone/H2O = 95/5(V/V), 20-25° C., read-out: Solubility (mg/mL) 20-25° C.): 5 to 5.1 mg/mL (≈ 9.16 to 9.34 mM) | solubility ([1]; organic solvent or mixture, Acetone/H2O = 95/5(V/V), 50° C., read-out: Solubility (mg/mL) 50° C.): 6.5 to 6.7 mg/mL (≈ 11.9 to 12.3 mM) | solubility ([1]; organic solvent or mixture, DCM, 20-25° C., read-out: Solubility (mg/mL) 20-25° C.): < 3.3 mg/mL | solubility ([1]; organic solvent or mixture, DCM, 50° C., read-out: Solubility (mg/mL) 50° C.): < 3.3 mg/mL | solubility ([1]; organic solvent or mixture, DMSO, 20-25° C., read-out: Solubility (mg/mL) 20-25° C.): 167 to 200 mg/mL (≈ 306 to 366 mM) | solubility ([1]; organic solvent or mixture, DMSO, 50° C., read-out: Solubility (mg/mL) 50° C.): 250 to 333 mg/mL (≈ 458 to 610 mM) | solubility ([1]; organic solvent or mixture, EA, 20-25° C., read-out: Solubility (mg/mL) 20-25° C.): < 3.3 mg/mL | solubility ([1]; organic solvent or mixture, EA, 50° C., read-out: Solubility (mg/mL) 50° C.): < 3.3 mg/mL | solubility ([1]; organic solvent or mixture, EtOH, 20-25° C., read-out: Solubility (mg/mL) 20-25° C.): 8 to 8.3 mg/mL (≈ 14.7 to 15.2 mM) | solubility ([1]; organic solvent or mixture, EtOH, 50° C., read-out: Solubility (mg/mL) 50° C.): 20 to 20.4 mg/mL (≈ 36.6 to 37.4 mM) | solubility ([1]; organic solvent or mixture, EtOH/H2O = 95/5(V/V), 20-25° C., read-out: Solubility (mg/mL) 20-25° C.): 22.2 to 23.2 mg/mL (≈ 40.7 to 42.5 mM) | solubility ([1]; organic solvent or mixture, EtOH/H2O = 95/5(V/V), 50° C., read-out: Solubility (mg/mL) 50° C.): 45.4 to 47.6 mg/mL (≈ 83.1 to 87.2 mM) | solubility ([1]; organic solvent or mixture, Heptane, 20-25° C., read-out: Solubility (mg/mL) 20-25° C.): < 3.3 mg/mL | solubility ([1]; organic solvent or mixture, Heptane, 50° C., read-out: Solubility (mg/mL) 50° C.): < 3.3 mg/mL | solubility ([1]; organic solvent or mixture, IPA, 20-25° C., read-out: Solubility (mg/mL) 20-25° C.): < 3.3 mg/mL | solubility ([1]; organic solvent or mixture, IPA, 50° C., read-out: Solubility (mg/mL) 50° C.): 5 to 5.1 mg/mL (≈ 9.16 to 9.34 mM) | solubility ([1]; organic solvent or mixture, IPA/H2O = 95/5(V/V), 20-25° C., read-out: Solubility (mg/mL) 20-25° C.): < 3.3 mg/mL | solubility ([1]; organic solvent or mixture, IPA/H2O = 95/5(V/V), 50° C., read-out: Solubility (mg/mL) 50° C.): 8 to 8.1 mg/mL (≈ 14.7 to 14.8 mM) | solubility ([1]; organic solvent or mixture, IPAc, 20-25° C., read-out: Solubility (mg/mL) 20-25° C.): < 3.3 mg/mL | solubility ([1]; organic solvent or mixture, IPAc, 50° C., read-out: Solubility (mg/mL) 50° C.): < 3.3 mg/mL | solubility ([1]; organic solvent or mixture, MTBE, 20-25° C., read-out: Solubility (mg/mL) 20-25° C.): < 3.3 mg/mL | solubility ([1]; organic solvent or mixture, MTBE, 50° C., read-out: Solubility (mg/mL) 50° C.): < 3.3 mg/mL | solubility ([1]; organic solvent or mixture, MeOH, 20-25° C., read-out: Solubility (mg/mL) 20-25° C.): 32.2 to 33.3 mg/mL (≈ 59 to 61 mM) | solubility ([1]; organic solvent or mixture, MeOH, 50° C., read-out: Solubility (mg/mL) 50° C.): 74.1 to 76.9 mg/mL (≈ 136 to 141 mM) | solubility ([1]; organic solvent or mixture, THF, 20-25° C., read-out: Solubility (mg/mL) 20-25° C.): 12.5 to 12.6 mg/mL (≈ 22.9 to 23.1 mM) | solubility ([1]; organic solvent or mixture, THF, 50° C., read-out: Solubility (mg/mL) 50° C.): 18.1 to 18.5 mg/mL (≈ 33.1 to 33.9 mM) | solubility ([1]; organic solvent or mixture, Toluene, 20-25° C., read-out: Solubility (mg/mL) 20-25° C.): < 3.3 mg/mL | solubility ([1]; organic solvent or mixture, Toluene, 50° C., read-out: Solubility (mg/mL) 50° C.): < 3.3 mg/mL | solubility ([1]; water, H2O, 20-25° C., read-out: Solubility (mg/mL) 20-25° C.): < 3.3 mg/mL | solubility ([1]; water, H2O, 50° C., read-out: Solubility (mg/mL) 50° C.): < 3.3 mg/mL

Cn1cnc([C@@H]2C[C@@H]3C[C@@](O)(c4cc(OCC(C)(C)O)nn4C)C[C@@H]3C2)c1C(=O)Nc1ccc(F)c(Cl)c1 [Type 1, N-(3-chloro-4-fluorophenyl)-4-((2s,3aR,5r,6aS)-5-hydroxy-5-(3-(2-hydroxy-2-methylpropoxy)-1-methyl-1H-pyrazol-5-yl)octahydropentalen-2-yl)-1-methyl-1H-imidazole-5-carboxamide]
Characterization (of approximate solubility) ([2]; 1-Butanol): Moderate | Characterization (of approximate solubility) ([2]; 2-MeTHF): Moderate | Characterization (of approximate solubility) ([2]; Acetone): Moderate | Characterization (of approximate solubility) ([2]; Acetonitrile): Poor | Characterization (of approximate solubility) ([2]; CPME): Poor | Characterization (of approximate solubility) ([2]; DCM): Poor | Characterization (of approximate solubility) ([2]; DMF): High | Characterization (of approximate solubility) ([2]; DMSO): High | Characterization (of approximate solubility) ([2]; EtOH): High | Characterization (of approximate solubility) ([2]; H2O): Poor | Characterization (of approximate solubility) ([2]; IPA): Moderate | Characterization (of approximate solubility) ([2]; IPAc): Poor | Characterization (of approximate solubility) ([2]; MEK): Moderate | Characterization (of approximate solubility) ([2]; MIBK): Poor | Characterization (of approximate solubility) ([2]; MTBE): Poor | Characterization (of approximate solubility) ([2]; MeOH): High | Characterization (of approximate solubility) ([2]; THF): High | Characterization (of approximate solubility) ([2]; Toluene): Poor | Characterization (of approximate solubility) ([2]; n-Heptane): Poor | Characterization (of approximate solubility) ([2]; n-Propanol): Moderate | solubility ([2]; organic solvent or mixture, 1-Butanol): 2.4 to 8 mg/mL (≈ 4.4 to 14.7 mM) | solubility ([2]; organic solvent or mixture, 2-MeTHF): 2.2 to 7.3 mg/mL (≈ 4.03 to 13.4 mM) | solubility ([2]; organic solvent or mixture, Acetone): 2.3 to 7.7 mg/mL (≈ 4.21 to 14.1 mM) | solubility ([2]; organic solvent or mixture, Acetonitrile): < 2 mg/mL | solubility ([2]; organic solvent or mixture, CPME): < 2.2 mg/mL | solubility ([2]; organic solvent or mixture, DCM): < 2.4 mg/mL | solubility ([2]; organic solvent or mixture, DMF): > 48 mg/mL | solubility ([2]; organic solvent or mixture, DMSO): > 48 mg/mL | solubility ([2]; organic solvent or mixture, EtOH): 20 to 40 mg/mL (≈ 36.6 to 73.3 mM) | solubility ([2]; organic solvent or mixture, IPA): 2.2 to 7.3 mg/mL (≈ 4.03 to 13.4 mM) | solubility ([2]; organic solvent or mixture, IPAc): < 2.1 mg/mL | solubility ([2]; organic solvent or mixture, MEK): 2.2 to 7.3 mg/mL (≈ 4.03 to 13.4 mM) | solubility ([2]; organic solvent or mixture, MIBK): < 2.2 mg/mL | solubility ([2]; organic solvent or mixture, MTBE): < 2 mg/mL | solubility ([2]; organic solvent or mixture, MeOH): > 42 mg/mL | solubility ([2]; organic solvent or mixture, THF): 21 to 42 mg/mL (≈ 38.5 to 76.9 mM) | solubility ([2]; organic solvent or mixture, Toluene): < 2.5 mg/mL | solubility ([2]; organic solvent or mixture, n-Heptane): < 2.3 mg/mL | solubility ([2]; organic solvent or mixture, n-Propanol): 2.2 to 7.3 mg/mL (≈ 4.03 to 13.4 mM) | solubility ([2]; water, H2O): < 2.5 mg/mL | water content at 80% RH by DVS [3]: 0.67% | form change post-DVS (XRPD) [3]: no form change | hygroscopicity (from DVS) ([3]; based on water sorption at 80% RH): slightly hygroscopic

Cn1cnc([C@@H]2C[C@@H]3C[C@@](O)(c4cc(OCC(C)(C)O)nn4C)C[C@@H]3C2)c1C(=O)Nc1ccc(F)c(Cl)c1 [Type 2, N-(3-chloro-4-fluorophenyl)-4-((2s,3aR,5r,6aS)-5-hydroxy-5-(3-(2-hydroxy-2-methylpropoxy)-1-methyl-1H-pyrazol-5-yl)octahydropentalen-2-yl)-1-methyl-1H-imidazole-5-carboxamide]
RH range in which the form is stable (DVS) [3]: 30-95 % RH | water content at 80% RH by DVS [3]: 9.2% | form change post-DVS (XRPD) [3]: Form change was observed post-DVS to a lower order hydrate; also recorded: converted to Type 3
